Results taken from PubChem BioAssay (NCI).
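Five compound concentrations were applied to cells in 96-well plates for 48 hours; endpoints were derived by simple linear interpolation of the resulting dose-response curve. The concentration for 50% growth inhibition is given as GI50. TGI: concentration producing complete growth inhibition.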

Key:
Assay in all cases: growth of human tumour cells (NCI), 48 h
[1] = test system: SK-MEL-28 melanoma
[2] = test system: COLO 205 colon
[3] = test system: HL-60(TB) leukemia
[4] = test system: UACC-257 melanoma
[5] = test system: SF-295 CNS
[6] = test system: K-562 leukemia
[7] = test system: SNB-75 CNS
[8] = test system: M14 melanoma
[9] = test system: SK-MEL-2 melanoma
[10] = test system: MDA-MB-435

## C[C@@H](CO)OCOCc1ccccc1
[1]
  TGI: > 100 µM
[2]
  TGI: > 100 µM
[3]
  TGI: > 100 µM
[4]
  TGI: > 100 µM
[5]
  TGI: > 100 µM
[6]
  TGI: > 100 µM
[7]
  TGI: > 100 µM
[8]
  TGI: > 100 µM
[9]
  TGI: > 100 µM

## C/C=C/C=N/N(C(=O)c1cc([N+](=O)[O-])cc([N+](=O)[O-])c1)C1=NC(c2ccccc2)C(c2ccccc2)=NN1 (stereo not given)
[1]
  TGI: > 100 µM
[2]
  TGI: 75 µM
[3]
  TGI: 55.6 µM
[4]
  TGI: 70.8 µM
[5]
  TGI: > 100 µM
[6]
  TGI: > 100 µM
[7]
  TGI: > 100 µM
[8]
  TGI: > 100 µM
[9]
  TGI: > 100 µM

## COc1cc(/C=C2\[C@H]3c4c(c(OC)c(C)c(OC)c4OC)C[C@@H](C(=O)N2Cc2ccccc2)N3C(=O)OC(C)C)c(OC)c(C)c1OC
[1]
  TGI: > 100 µM
[2]
  TGI: > 100 µM
[3]
  TGI: > 100 µM
[4]
  TGI: > 100 µM
[5]
  TGI: > 100 µM
[6]
  TGI: > 100 µM
[7]
  TGI: > 100 µM
[8]
  TGI: > 100 µM
[9]
  TGI: > 100 µM

## COc1cc2nc(Sc3c([N+](=O)[O-])ncn3C)[nH]c2cc1OC
[1]
  TGI: > 100 µM
[2]
  TGI: 30.2 µM
[4]
  TGI: 78.3 µM
[5]
  TGI: > 100 µM
[7]
  TGI: > 100 µM
[8]
  TGI: > 100 µM

## COC(=O)C(C(=O)C(=O)Nc1ccccc1C(C)=O)c1nc2ccc(Cl)cc2[nH]c1=O (stereo not given)
[1]
  TGI: > 100 µM
[2]
  TGI: > 100 µM
[3]
  TGI: > 100 µM
[4]
  TGI: > 100 µM
[5]
  TGI: > 100 µM
[6]
  TGI: > 100 µM
[7]
  TGI: > 100 µM
[8]
  TGI: > 100 µM
[9]
  TGI: > 100 µM

## COC(=O)C1(C(=O)OC)CC2c3c(c4ccccc4n3C)CC(C1=O)N2Cc1ccccc1 (stereo not given)
[1]
  TGI: > 100 µM
[2]
  TGI: > 100 µM
[3]
  TGI: > 100 µM
[4]
  TGI: > 100 µM
[5]
  TGI: > 100 µM
[6]
  TGI: > 100 µM
[7]
  TGI: 92 µM
[8]
  TGI: > 100 µM
[9]
  TGI: > 100 µM

## Cc1ccccc1NC(=O)C(=O)C(c1cnc2ccc([N+](=O)[O-])cc2n1)[N+](=O)[O-] (stereo not given)
[1]
  TGI: > 100 µM
[2]
  TGI: > 100 µM
[3]
  TGI: > 100 µM
[4]
  TGI: > 100 µM
[5]
  TGI: > 100 µM
[6]
  TGI: > 100 µM
[7]
  TGI: > 100 µM
[8]
  TGI: > 100 µM
[9]
  TGI: > 100 µM

## Nc1ncnc(NC2C=C(CO)C(O)C2O)c1[N+](=O)[O-] (stereo not given)
[1]
  TGI: > 100 µM
[2]
  TGI: > 100 µM
[3]
  TGI: > 100 µM
[4]
  TGI: > 100 µM
[5]
  TGI: > 100 µM
[6]
  TGI: > 100 µM
[7]
  TGI: > 100 µM
[8]
  TGI: > 100 µM
[9]
  TGI: > 100 µM

## O=C(O)c1ccc(O)c(N=Nc2cc(S(=O)(=O)O)c3ccccc3c2O)c1
[1]
  TGI: > 100 µM
[2]
  TGI: > 100 µM
[3]
  TGI: > 100 µM
[4]
  TGI: > 10 µM
[5]
  TGI: > 10 µM
[6]
  TGI: > 100 µM
[7]
  TGI: > 100 µM
[9]
  TGI: > 10 µM

## COc1cc(/C=C/C(=O)c2ccc(Nc3ncnc4ccccc34)cc2)cc(OC)c1
[1]
  GI50: 15.4 µM
  TGI: 34.4 µM
[2]
  GI50: 9.59 µM
  TGI: 39.8 µM
[3]
  GI50: 3.74 µM
  TGI: 30.4 µM
[4]
  GI50: 9.7 µM
  TGI: 34.1 µM
[5]
  GI50: 4.31 µM
  TGI: 29.2 µM
[10]
  GI50: 1.8 µM
  TGI: 4.14 µM
[7]
  GI50: 24.1 µM
  TGI: > 100 µM
[8]
  GI50: 3.95 µM
  TGI: 14.6 µM
[9]
  GI50: 16.2 µM
  TGI: 57.7 µM

## COc1ccc(NC(=O)C(=O)C2CNC(=O)NC2=O)c(OC)c1 (stereo not given)
[1]
  TGI: > 100 µM
[2]
  TGI: > 100 µM
[3]
  TGI: > 100 µM
[4]
  TGI: > 100 µM
[5]
  TGI: > 100 µM
[6]
  TGI: > 100 µM
[7]
  TGI: > 100 µM
[8]
  TGI: > 100 µM
[9]
  TGI: > 100 µM

## CC(C)NCC(O)COC(=O)c1cccs1 (stereo not given)
[1]
  TGI: > 100 µM
[2]
  TGI: > 100 µM
[3]
  TGI: > 100 µM
[4]
  TGI: > 100 µM
[6]
  TGI: > 100 µM
[7]
  TGI: > 100 µM
[8]
  TGI: > 100 µM
[9]
  TGI: > 100 µM

## N=C1N(c2ccccc2)C(=O)C23CCCC2C13N1CCOCC1 (stereo not given)
[1]
  TGI: > 100 µM
[2]
  TGI: > 100 µM
[3]
  TGI: > 100 µM
[4]
  TGI: > 100 µM
[5]
  TGI: > 100 µM
[6]
  TGI: > 100 µM
[7]
  TGI: > 100 µM
[8]
  TGI: > 100 µM
[9]
  TGI: > 100 µM

## Cc1cc(C)c(O)c(Cc2cccc(Cc3cc(C)cc(C)c3O)c2O)c1
[1]
  TGI: > 100 µM
[2]
  TGI: > 100 µM
[4]
  TGI: > 100 µM
[5]
  TGI: > 100 µM
[6]
  TGI: > 100 µM
[10]
  TGI: > 100 µM
[7]
  TGI: > 100 µM
[8]
  TGI: > 100 µM
[9]
  TGI: > 100 µM

## CC1(C)OC(C(N)=O)=C(C(N)=O)O1
[1]
  TGI: > 100 µM
[2]
  TGI: > 100 µM
[3]
  TGI: > 100 µM
[4]
  TGI: > 100 µM
[5]
  TGI: > 100 µM
[6]
  TGI: > 100 µM
[7]
  TGI: > 100 µM
[8]
  TGI: > 100 µM
[9]
  TGI: > 100 µM

## NC(CNO)C(=O)O (stereo not given)
[1]
  TGI: > 100 µM
[2]
  TGI: > 100 µM
[3]
  TGI: 21.7 µM
[4]
  TGI: > 100 µM
[5]
  TGI: > 100 µM
[10]
  TGI: > 100 µM
[7]
  TGI: > 100 µM
[8]
  TGI: > 100 µM
[9]
  TGI: > 100 µM

## COC(=O)C(=O)C(C(=O)C(=O)Nc1ccc(Cl)cc1C)c1nc2ccc(C(=O)c3ccccc3)cc2[nH]c1=O (stereo not given)
[2]
  TGI: > 100 µM
[3]
  TGI: > 100 µM
[4]
  TGI: > 100 µM
[5]
  TGI: > 100 µM
[6]
  TGI: > 100 µM
[7]
  TGI: > 100 µM
[8]
  TGI: > 100 µM
[9]
  TGI: > 100 µM

## Cc1ccc([N+](=O)[O-])cc1NC(=O)C(=O)Cc1occc(=O)c1O
[1]
  TGI: > 100 µM
[2]
  TGI: > 100 µM
[3]
  TGI: > 100 µM
[5]
  TGI: > 100 µM
[6]
  TGI: > 100 µM
[7]
  TGI: > 100 µM

## CCC(C)OC(=O)C1C2CCC(O2)C1C(=O)O (stereo not given)
[1]
  TGI: > 100 µM
[2]
  TGI: > 60.1 µM
[3]
  TGI: > 100 µM
[4]
  TGI: > 100 µM
[5]
  TGI: > 100 µM
[6]
  TGI: > 100 µM
[7]
  TGI: > 100 µM
[8]
  TGI: > 100 µM
[9]
  TGI: > 100 µM

## C#CCOCn1cnc2c(=S)nc[nH]c21
[1]
  TGI: > 100 µM
[2]
  TGI: > 100 µM
[3]
  TGI: > 100 µM
[4]
  TGI: > 100 µM
[5]
  TGI: > 100 µM
[6]
  TGI: > 100 µM
[7]
  TGI: 98.9 µM
[8]
  TGI: > 100 µM
[9]
  TGI: > 100 µM

## Oc1ccc(CNCc2ccccc2)c2cccnc12
[1]
  TGI: > 100 µM
[2]
  TGI: > 72 µM
[3]
  TGI: 1.05 µM
[4]
  TGI: 0.816 µM
[5]
  TGI: 61.4 µM
[6]
  TGI: > 100 µM
[10]
  TGI: > 100 µM
[7]
  TGI: 0.229 µM
[8]
  TGI: 12 µM

## O=C1C(=O)N(C(=O)c2ccc(Cl)c(Cl)c2)c2ccc(Cl)cc21
[1]
  TGI: > 100 µM
[2]
  TGI: > 100 µM
[3]
  TGI: 61.6 µM
[5]
  TGI: > 100 µM
[6]
  TGI: > 100 µM
[7]
  TGI: > 100 µM
[8]
  TGI: > 100 µM

## C=C[C@]1(C)CCC2=C(CCC3C2(C)CCC[C@]3(C)CO)C1 (stereo not given in full)
[1]
  TGI: > 100 µM
[2]
  TGI: > 100 µM
[3]
  TGI: 52.2 µM
[4]
  TGI: > 100 µM
[5]
  TGI: > 100 µM
[6]
  TGI: > 100 µM
[7]
  TGI: > 100 µM
[8]
  TGI: > 100 µM
[9]
  TGI: > 100 µM
